Measurements taken from US7863274B2, “Deuterium enriched analogues of tadalafil as PDE5 inhibitors” (Concert Pharmaceuticals Inc., priority 2005, dated 2011).

Key:
[1] = humans, cited from earlier work
[2] = tested on: spontaneously hypertensive rats; assay: Hypotensive effects in the spontaneous hypertensive rat model (Cerep); type: in vivo; settings: oral administration, 10 mg/kg, 8 rats per group, over 8 h
Procedure: Hypotensive effects in the spontaneous hypertensive rat model. Effects of the products of examples 7, 9, 12, 18, 27 and 30 are tested by oral administration to spontaneously hypertensive rats at Cerep, using essentially the procedure of Bazil M K et. al., J. Cardiovasc. Pharmacol. 1993 22: 897 and a sample size of 8 rats per group.

Structure (SMILES) | reduction in blood pressure [2] | other results
CN1CC(=O)N2[C@H](c3ccc4c(c3)OCO4)c3[nH]c4ccccc4c3C[C@@H]2C1=O [Compound 1, (6R,12aR)-6-(1,3-benzodioxol-5-yl)-2-methyl-1,2,3,4,6,7,12,12a-octahydropyrazino[1′,2′:1,6]pyrido[3,4-b]indole-1,4-dione] | – | half-life and exposure (AUC) when dosed concurrently with CYP3A4 inhibitors ([1]; co-dosing with inhibitors of CYP3A4): clinically meaningful increases; absorption following oral administration ([1]; oral): well absorbed; amount excreted unchanged ([1]; oral): only a minor amount
[2H]C([2H])([2H])N1CC(=O)N2[C@H](c3ccc4c(c3)OC(F)(F)O4)c3[nH]c4ccccc4c3C[C@@H]2C1=O [Example 7, (6R,12aR)-6-(2,2-Difluorobenzo[d]-1,3-dioxol-5-yl)-1,2,3,4,6,7,12,12a-octahydropyrazino[1′,2′:1,6]pyrido[3,4-b]indole-2-trideuteromethyl-1,4-dione] | significant reductions in blood pressure sustained over 8 h | –
[2H]c1cc2c(cc1[C@@H]1c3[nH]c4ccccc4c3C[C@@H]3C(=O)N(C)CC(=O)N13)OC(F)(F)O2 [Example 9, (6R,12aR)-6-(6-Deutero-2,2-difluorobenzo[d]-1,3-dioxol-5-yl)-2-methyl-1,2,3,4,6,7,12,12a-octahydropyrazino[1′,2′:1,6]pyrido[3,4-b]indole-1,4-dione] | significant reductions in blood pressure sustained over 8 h | –
[2H][C@@]1(c2ccc3c(c2)OC(F)(F)O3)c2[nH]c3ccccc3c2C[C@@H]2C(=O)N(C)CC(=O)N21 [Example 12, (6R,12aR)-6-Deutero-6-(2,2-difluorobenzo[d]-1,3-dioxol-5-yl)2-methyl-1,2,3,4,6,7,12,12a-octahydropyrazino[1′,2′:1,6]pyrido[3,4-b]indole-1,4-dione] | significant reductions in blood pressure sustained over 8 h | –
CN1CC(=O)N2[C@H](c3ccc4c(c3)OC(F)(F)O4)c3[nH]c4ccccc4c3C[C@@H]2C1=O [Example 18, (6R,12aR)-6-(2,2-Difluorobenzo[d]-1,3-dioxol-5-yl)-1,2,3,4,6,7,12,12a-octahydropyrazino[1′,2′:1,6]pyrido[3,4-b]indole-2-methyl-1,4-dione] | significant reductions in blood pressure sustained over 8 h | –
[2H]C1([2H])Oc2ccc([C@@H]3c4[nH]c5ccccc5c4C[C@@H]4C(=O)N(C)CC(=O)N34)cc2O1 [Example 27, (6R,12aR)-6-(2,2-dideuterobenzo[d]-1,3-dioxol-5-yl)-2-methyl-1,2,3,4,6,7,12,12a-octahydropyrazino[1′,2′:1,6]pyrido[3,4-b]indole-1,4-dione] | significant reductions in blood pressure sustained over 8 h | –
[2H]C1([2H])Oc2ccc([C@@H]3c4[nH]c5ccccc5c4C[C@@H]4C(=O)N(C([2H])([2H])[2H])CC(=O)N34)cc2O1 [Example 30, (6R,12aR)-6-(2,2-dideuterobenzo[d]-1,3-dioxol-5-yl)-1,2,3,4,6,7,12,12a-octahydropyrazino[1′,2′:1,6]pyrido[3,4-b]indole-2-trideuteromethyl-1,4-dione] | significant reductions in blood pressure sustained over 8 h | –
